The values that follow come from patent publication US9556156B2, “Compounds, their synthesis and their uses” (priority 2012, dated 2017).

The test concerns Sprague Dawley (SD) rat. The format is in vivo. The procedure: The general anesthetic activity of Propofol novel drug compound 1004 was evaluated in rats. All animal experiments were performed as per CPCSEA guidelines. The studies were carried out in Sprague Dawley (SD) rat in the weight range […] by intravenous tail vein dosing over a period of 10 seconds. The formulations of the compound 1004 for IV dosing in rats were prepared in pre-mix PEG400 and saline. Formulations of 1004 equivalent to 5 mpk (14 mpk of compd. 1004) and 7.5 mpk (equivalent to 21 mpk of compound 1004) of parent drug Propofol were prepared in 15% PEG400 and 85% normal saline. The monitoring of distinguishable levels of sedation was started during the dosing period and continued till animals regained consciousness. The onset, duration of sleep and recovery time was recorded.

Where two headings read alike, the source gives them in different places.

Consider `CNC(=O)c1ccc[n+](COC(=O)Oc2c(C(C)C)cccc2C(C)C)c1.[I-]` [Compound 1004, 1-(((2,6-diisopropylphenoxy)carbonyloxy)methyl)-3-(methylcarbamoyl)pyridinium iodide], for which the Recovery entry (SD rat, IV tail vein, Propofol Eq. 7.5 mpk, vehicle 15% PEG400, 85% NS) is “Complete”. The “General Anesthesia (GA)” value (onset of GA, SD rat, IV tail vein over 10 seconds, Propofol Eq. 7.5 mpk, vehicle 15% PEG400, 85% NS) is on record as “After 1 min”.

For the compound `CC(C)c1cccc(C(C)C)c1O` [Propofol, 2,6-diisopropylphenol], for the setting “rat, in vivo”, the “General Anesthesia (GA)” value was “No GA” and the Recovery entry was “Complete”.
